Measurements as given in ChEMBL document CHEMBL4251740, “Further Exploring Solvent-Exposed Tolerant Regions of Allosteric Binding Pocket for Novel HIV-1 NNRTIs Discovery” (ACS Med Chem Lett, 2018).
Active and inactive are the calls of the source. The calls are words filed in the database; no cut-off is given here.

Experiments:
[1] = (§1) Cytotoxicity against human MT4 cells assessed as reduction in cell viability by MTT assay; type: cell-based; details: MT4 cells
[2] = Selectivity index, ratio of CC50 for human MT4 cells to EC50 for wild-type HIV1 3B reverse transcriptase infected in human MT4 cells; type: toxicity, cell-based; details: read-out: Ratio CC50/EC50
[3] = Selectivity index, ratio of CC50 for human MT4 cells to EC50 for HIV1 RES056 reverse transcriptase K103N/Y181C double mutant infected in human MT4 cells; type: toxicity, cell-based; details: read-out: Ratio CC50/EC50
[4] = tested on: MT4; assay: as §1; type: cell-based; details: mt4
[5] = tested on: Human immunodeficiency virus 1; assay: Fold resistance, ratio of EC50 for HIV1 reverse transcriptase K103N mutant infected in human MT4 cells to EC50 for wild-type HIV1 3B reverse transcriptase infected in human MT4 cells; type: cell-based
[6] = tested on: Human immunodeficiency virus type 1 reverse transcriptase (Human immunodeficiency virus 1), Q72547 [Y181C]; assay: Inhibition of HIV1 reverse transcriptase Y181C mutant infected in human MT4 cells assessed as protection against virus-induced cytotoxicity by MTT assay; type: cell-based
[7] = tested on: Human immunodeficiency virus type 1 reverse transcriptase (Human immunodeficiency virus 1), Q72547 [F227L,V106A]; assay: Inhibition of HIV1 RES056 reverse transcriptase F227L/V106A double mutant infected in human MT4 cells assessed as protection against virus-induced cytotoxicity by MTT assay; type: cell-based
[8] = tested on: Human immunodeficiency virus type 1 reverse transcriptase (Human immunodeficiency virus 1), Q72547 [R221A]; assay: Inhibition of HIV1 reverse transcriptase Y188L mutant infected in human MT4 cells assessed as protection against virus-induced cytotoxicity by MTT assay; type: cell-based
[9] = tested on: Human immunodeficiency virus type 1 reverse transcriptase (Human immunodeficiency virus 1), Q72547 [L100I]; assay: Inhibition of HIV1 reverse transcriptase L100I mutant infected in human MT4 cells assessed as protection against virus-induced cytotoxicity by MTT assay; type: cell-based
[10] = tested on: Human immunodeficiency virus 1; assay: Fold resistance, ratio of EC50 for HIV1 reverse transcriptase Y181C mutant infected in human MT4 cells to EC50 for wild-type HIV1 3B reverse transcriptase infected in human MT4 cells; type: cell-based
[11] = tested on: Human immunodeficiency virus 1; assay: Fold resistance, ratio of EC50 for HIV1 reverse transcriptase E138K mutant infected in human MT4 cells to EC50 for wild-type HIV1 3B reverse transcriptase infected in human MT4 cells; type: cell-based
[12] = tested on: Human immunodeficiency virus type 1 reverse transcriptase (Human immunodeficiency virus 1), Q72547 [K103N,Y181C]; assay: Potency index, ratio of ETV EC50 to test compound EC50 for HIV1 RES056 reverse transcriptase K103N/Y181C double mutant infected in human MT4 cells; type: cell-based
[13] = tested on: Human immunodeficiency virus type 1 reverse transcriptase (Human immunodeficiency virus 1), Q72547 [K103N]; assay: Potency index, ratio of ETV EC50 to test compound EC50 for HIV1 reverse transcriptase K103N mutant infected in human MT4 cells; type: cell-based
[14] = tested on: Human immunodeficiency virus type 1 reverse transcriptase (Human immunodeficiency virus 1), Q72547 [E138K]; assay: Potency index, ratio of ETV EC50 to test compound EC50 for HIV1 reverse transcriptase E138K mutant infected in human MT4 cells; type: cell-based
[15] = tested on: Human immunodeficiency virus type 1 reverse transcriptase (Human immunodeficiency virus 1), Q72547 [L100I]; assay: Potency index, ratio of ETV EC50 to test compound EC50 for HIV1 reverse transcriptase L100I mutant infected in human MT4 cells; type: cell-based
[16] = tested on: Human immunodeficiency virus type 1 reverse transcriptase (Human immunodeficiency virus 1), Q72547 [R221A]; assay: Potency index, ratio of ETV EC50 to test compound EC50 for HIV1 reverse transcriptase Y188L mutant infected in human MT4 cells; type: cell-based
[17] = tested on: Human immunodeficiency virus type 1 reverse transcriptase (Human immunodeficiency virus 1), Q72547 [F227L,V106A]; assay: Potency index, ratio of ETV EC50 to test compound EC50 for HIV1 RES056 reverse transcriptase F227L/V106A double mutant infected in human MT4 cells; type: cell-based
[18] = molecular target: Human immunodeficiency virus type 1 reverse transcriptase (Human immunodeficiency virus 1) (UniProt Q72547); assay: Potency index, ratio of ETV EC50 to test compound EC50 for wild-type HIV1 3B reverse transcriptase infected in human MT4 cells; type: cell-based
[19] = tested on: Human immunodeficiency virus type 1 reverse transcriptase (Human immunodeficiency virus 1), Q72547 [K103N]; assay: Inhibition of HIV1 reverse transcriptase K103N mutant infected in human MT4 cells assessed as protection against virus-induced cytotoxicity by MTT assay; type: cell-based

In the case of `Cc1ccnc2c1NC(=O)c1cccnc1N2C1CC1` [NEVIRAPINE], the CC50 [1] is reported as over 15 µM.

`Cc1cc(C#N)cc(C)c1Nc1nc(NC2CCN(Cc3ccc(S(N)(=O)=O)cc3)CC2)nc2ccsc12` gave a selectivity ratio [2] of over 159000, a selectivity ratio [3] of over 7440 and a CC50 [1] of over 227 µM.

`Cc1cc(C#N)cc(C)c1Oc1nc(NC2CCN(Cc3ccc(C(N)=O)cc3)CC2)nc2ccn(S(=O)(=O)c3ccccc3)c12` gave a selectivity ratio [2] of 227, a selectivity ratio [3] of 2 and a CC50 [4] of over 39.3 µM.

`Cc1cc(C#N)cc(C)c1Oc1nc(NC2CCN(Cc3ccc(S(C)(=O)=O)cc3)CC2)nc2cc[nH]c12` showed a selectivity ratio [2] of 589, a selectivity ratio [3] of 16 and a CC50 [1] of 8.12 µM. The Ratio EC50 [5] was 0.3 to 0.6.

With `Cc1cc(C#N)cc(C)c1Oc1nc(NC2CCN(Cc3cc(=O)[nH]c(=O)[nH]3)CC2)nc2ccsc12` the inhibition [6] was “inactive”, the inhibition [7] was “inactive” and the inhibition [8] was “inactive”. The selectivity ratio [2] was 18600, the inhibition [9] was “inactive” and the selectivity ratio [3] was 15. It also gave a CC50 [1] of 133 µM.

Work on `Cc1cc(C#N)cc(C)c1Oc1nc(NC2CCN(Cc3n[nH]c(=O)n3C)CC2)nc2ccsc12` yielded a selectivity ratio [2] of over 18500, a selectivity ratio [3] of over 15 and a CC50 [1] of over 254 µM.

With `Cc1cc(C#N)cc(C)c1Oc1nc(NC2CCN(Cc3ccc(N4CCCC4)cc3)CC2)nc2ccsc12` the selectivity ratio [2] was 133, the selectivity ratio [3] was under 1 and the CC50 [1] was 4.35 µM.

`Cc1cc(C#N)cc(C)c1Oc1nc(NC2CCN(Cc3ccc(S(C)(=O)=O)cc3)CC2)nc2ccn(COCc3ccccc3)c12` gave a Ratio EC50 [10] of 0.5 to 0.7, a selectivity ratio [2] of 459 and a selectivity ratio [3] of 17. The CC50 [1] was 10 µM.

In the case of `Cc1cc(C#Cc2ccccn2)cc(C)c1Oc1nc(NC2CCN(Cc3ccc(S(N)(=O)=O)cc3)CC2)nc2ccsc12`, the selectivity ratio [2] is reported as 1130, the selectivity ratio [3] is reported as 12 and the CC50 [1] is reported as 10.3 µM.

With `O=C1Nc2ccc(Cl)cc2[C@@](C#CC2CC2)(C(F)(F)F)O1` [EFAVIRENZ] the CC50 [1] was over 6.34 µM.

Compound `Cc1cc(C#N)cc(C)c1Oc1nc(NC2CCN(Cc3ccc(C(N)=O)cc3)CC2)nc2ccn(COCc3ccccc3)c12` has a Ratio EC50 [10] of 0.5 to 0.7, a Ratio EC50 [11] of 0.9 and a selectivity ratio [2] of 177. For the same compound, the selectivity ratio [3] was 9 and the CC50 [1] was 6.44 µM.

Compound `Cc1cn([C@H]2C[C@H](N=[N+]=[N-])[C@@H](CO)O2)c(=O)[nH]c1=O` [ZIDOVUDINE] has a selectivity ratio [2] of over 1000, a selectivity ratio [3] of over 448 and a CC50 [1] of 7.48 µM.

With `Cc1cc(C#N)cc(C)c1Oc1nc(Nc2ccc(C#N)cc2)nc(N)c1Br` [ETRAVIRINE] the CC50 [1] was 2.16 to 4.59 µM.

For `Cc1cc(C#N)cc(C)c1Oc1nc(NC2CCN(Cc3ccc(C(N)=O)cc3)CC2)nc2cc[nH]c12`, the selectivity ratio [2] was 1830, the selectivity ratio [3] was 118 and the CC50 [1] was 15.9 µM. It also gave a Ratio EC50 [5] of 0.3 to 0.6.

For `Cc1cc(C#N)cc(C)c1Oc1nc(NC2CCN(Cc3ccc(S(N)(=O)=O)cc3)CC2)nc2cc[nH]c12`, the Ratio EC50 [12] was 1.5 to 2.6, the Ratio EC50 [13] was 4 to 5 and the Ratio EC50 [14] was 4 to 5. It also gave a Ratio EC50 [15] of 1.5 to 2.6, a Ratio EC50 [16] of 4 to 5 and a selectivity ratio [2] of 1050. The selectivity ratio [3] was 61, the Ratio EC50 [17] was 1.5 to 2.6 and the CC50 [1] was 1.91 µM. For the same compound, the Ratio EC50 [18] was 1.5 to 2.6 and the Ratio EC50 [5] was 0.3 to 0.6.

With `Cc1cc(C#Cc2ccncc2)cc(C)c1Oc1nc(NC2CCN(Cc3ccc(S(N)(=O)=O)cc3)CC2)nc2ccsc12` the selectivity ratio [2] was 340, the selectivity ratio [3] was 52 and the CC50 [1] was 11.5 µM.

Work on `Cc1cc(/C=C/C#N)cc(C)c1Nc1nc(NC2CCN(Cc3ccc(S(N)(=O)=O)cc3)CC2)nc2ccsc12` yielded a selectivity ratio [2] of 1880, a selectivity ratio [3] of 419 and a CC50 [1] of 2.3 µM.

For `Cc1cc(C#N)cc(C)c1Oc1nc(NC2CCN(Cc3cn(S(C)(=O)=O)cn3)CC2)nc2ccsc12`, the inhibition [6] was “inactive”, the inhibition [7] was “inactive” and the inhibition [8] was “inactive”. The selectivity ratio [2] was 3720, the inhibition [9] was “inactive” and the selectivity ratio [3] was 8. It also gave a CC50 [1] of 21.1 µM.

Work on `Cc1cc(C#N)cc(C)c1Oc1nc(NC2CCN(Cc3ccc(S(N)(=O)=O)cc3)CC2)nc2ccn(S(=O)(=O)c3ccccc3)c12` yielded a selectivity ratio [2] of 454, a selectivity ratio [3] of 33 and a CC50 [1] of 3.67 µM.

`Cc1cc(C#N)cc(C)c1Oc1nc(NC2CCN(Cc3ccc(S(C)(=O)=O)cc3)CC2)nc2ccn(S(=O)(=O)c3ccccc3)c12` showed a selectivity ratio [2] of 270, a selectivity ratio [3] of 26 and a CC50 [1] of 5.15 µM.

In the case of `Cc1cc(C#N)cc(C)c1Oc1nc(NC2CCN(Cc3ccco3)CC2)nc2ccsc12`, the inhibition [6] is reported as “inactive”, the inhibition [7] is reported as “inactive” and the inhibition [8] is reported as “inactive”. For the same compound, the selectivity ratio [2] was over 76500, the inhibition [9] was “inactive” and the inhibition [19] was “Active”. The CC50 [1] was over 254 µM.

Compound `Cc1cc(C#N)cc(C)c1Oc1nc(NC2CCN(Cc3ccc(S(N)(=O)=O)cc3)CC2)nc2ccn(COCc3ccccc3)c12` has a Ratio EC50 [10] of 0.5 to 0.7, a selectivity ratio [2] of 632 and a selectivity ratio [3] of 10. For the same compound, the CC50 [1] was 4.84 µM.

Compound `Cc1cc(C#Cc2cccnc2)cc(C)c1Oc1nc(NC2CCN(Cc3ccc(S(N)(=O)=O)cc3)CC2)nc2ccsc12` has a selectivity ratio [2] of 157, a selectivity ratio [3] of 42 and a CC50 [1] of 6.39 µM.

With `Cc1cc(C#N)cc(C)c1Oc1nc(NC2CCN(Cc3c[nH]cn3)CC2)nc2ccsc12` the inhibition [6] was “inactive”, the inhibition [7] was “inactive” and the inhibition [8] was “inactive”. The selectivity ratio [2] was 4420, the inhibition [9] was “inactive” and the selectivity ratio [3] was 21. For the same compound, the CC50 [1] was 24.3 µM.
